Common to all, as to test: Kinase panel profiling at 1 µmol/L (MSA or IMAP), percentage inhibition
Common to all, as to format: biochemical

In experiment [1] the target is panel of 255 wild-type kinases (Homo sapiens, UniProt P06239). Particulars: read-out: %-inhibition at 1 µmol/L, LCK.
The target in experiment [2] is panel of 255 wild-type kinases (Homo sapiens, UniProt P06241). Particulars: read-out: %-inhibition at 1 µmol/L, FYN [isoform a].
In experiment [3] the target is panel of 255 wild-type kinases (Homo sapiens, UniProt P08581). Particulars: MET; 1 µmol/L single concentration.
Experiment [4] has as its target panel of 255 wild-type kinases (Homo sapiens, UniProt P14616). Particulars: read-out: %-inhibition at 1 µmol/L, IRR.
Experiment [5] concerns the target panel of 255 wild-type kinases (Homo sapiens, UniProt P19784). Particulars: read-out: %-inhibition at 1 µmol/L, CK2α2/β.
Experiment [6] deals with panel of 255 wild-type kinases (Homo sapiens, UniProt P23443). As to conditions: read-out: %-inhibition, p70S6K.
For experiment [7], the target named is panel of 255 wild-type kinases (Homo sapiens, UniProt P29597). Particulars: read-out: %-inhibition at 1 µmol/L, TYK2.
The target in experiment [8] is panel of 255 wild-type kinases (Homo sapiens, UniProt P35968). As to conditions: read-out: %-inhibition at 1 µmol/L, KDR.
Experiment [9] deals with panel of 255 wild-type kinases (Homo sapiens, UniProt P42685). Particulars: read-out: %-inhibition at 1 µmol/L, FRK.
Experiment [10] concerns the target panel of 255 wild-type kinases (Homo sapiens, UniProt P49137). Particulars: read-out: %-inhibition at 1 µmol/L, MAPKAPK2.
Experiment [11] concerns the target panel of 255 wild-type kinases (Homo sapiens, UniProt P49841). Particulars: kinase GSK3β; 1 µmol/L single concentration.
Experiment [12] has as its target panel of 255 wild-type kinases (Homo sapiens, UniProt P50750). As to conditions: read-out: %-inhibition CDK9/CycT1.
The target of experiment [13] is panel of 255 wild-type kinases (Homo sapiens, UniProt P78368). Particulars: read-out: %-inhibition at 1 µmol/L, CK1γ2.
In experiment [14] the target is panel of 255 wild-type kinases (Homo sapiens, UniProt Q00534). Particulars: read-out: %-inhibition CDK6/CycD3.
The target of experiment [15] is panel of 255 wild-type kinases (Homo sapiens, UniProt Q02763). Particulars: read-out: %-inhibition at 1 µmol/L, TIE2.
Experiment [16] concerns the target panel of 255 wild-type kinases (Homo sapiens, UniProt Q15208). As to conditions: read-out: %-inhibition, NDR1.
The target of experiment [17] is panel of 255 wild-type kinases (Homo sapiens, UniProt Q15349). Particulars: read-out: %-inhibition at 1 µmol/L, RSK3.
Experiment [18] addresses T1, panel of 255 wild-type kinases (Homo sapiens, UniProt Q96KB5).
T1 sequence (Q96KB5 1-322): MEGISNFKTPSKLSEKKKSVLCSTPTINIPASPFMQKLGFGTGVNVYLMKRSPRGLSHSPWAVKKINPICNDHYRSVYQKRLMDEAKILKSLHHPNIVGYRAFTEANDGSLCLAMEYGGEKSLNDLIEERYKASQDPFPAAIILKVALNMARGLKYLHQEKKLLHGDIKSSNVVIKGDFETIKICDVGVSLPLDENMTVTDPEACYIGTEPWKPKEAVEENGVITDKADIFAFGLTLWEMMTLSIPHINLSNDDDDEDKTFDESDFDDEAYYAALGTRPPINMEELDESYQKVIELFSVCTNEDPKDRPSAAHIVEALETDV
As to conditions: read-out: %-inhibition at 1 µmol/L, PBK.

The target in experiment [19] is panel of 255 wild-type kinases (Homo sapiens, UniProt Q9UBS0). As to conditions: read-out: %-inhibition, p70S6Kβ.
Experiment [20] addresses panel of 255 wild-type kinases (Homo sapiens, UniProt Q08345). As to conditions: read-out: %-inhibition at 1 µmol/L, DDR1.
[21] abbreviates: kinase LCK, 1 µmol/L single concentration.
Setting [22] is: kinase FYN [isoform a], 1 µmol/L single concentration.
[23] abbreviates: kinase IRR, 1 µmol/L single concentration.
Setting [24] is: kinase CK2α2/β, 1 µmol/L single concentration.
Where [25] appears, read: p70S6K, 1 µmol/L single concentration.
Setting [26] is: kinase TYK2, 1 µmol/L single concentration.
The mark [27] stands for this setting: kinase KDR, 1 µmol/L single concentration.
[28] abbreviates: kinase FRK, 1 µmol/L single concentration.
[29] abbreviates: kinase MAPKAPK2, 1 µmol/L single concentration.
Where [30] appears, read: CDK9/CycT1 kinase assay, 1 µmol/L single concentration.
Setting [31] is: kinase CK1γ2, 1 µmol/L single concentration.
Setting [32] is: CDK6/CycD3 kinase assay, 1 µmol/L single concentration.
Setting [33] is: kinase TIE2, 1 µmol/L single concentration.
[34] abbreviates: NDR1, 1 µmol/L single concentration.
The mark [35] stands for this setting: kinase RSK3, 1 µmol/L single concentration.
Where [36] appears, read: kinase PBK, 1 µmol/L single concentration.
Where [37] appears, read: p70S6Kβ, 1 µmol/L single concentration.
Where [38] appears, read: kinase DDR1, 1 µmol/L single concentration.

Like-named read-outs stand apart in the source and are kept apart here.

As to `Cn1cc(-c2cc3c(N4CCN(c5ncc([C@@](C)(N)c6ccc(F)cc6)cn5)CC4)ncnn3c2)cn1` [avapritinib], the inhibition at 1 µM in experiment [1] (setting [21]) is 92%; in experiment [2] (setting [22]), 57%; in [3] it was 16%; in [4] (setting [23]), 2.37%; in experiment [5] (setting [24]), -1.79%; in [6] (setting [25]) it was 20%. The inhibition at 1 µM in [7] (setting [26]) was 16%; in experiment [8] (setting [27]), 71%; in experiment [9] (setting [28]), 25%; in experiment [10] (setting [29]), -0.02%; in experiment [11], -5.32%; in [12] (setting [30]), 49%. Besides, the inhibition at 1 µM was 7% in experiment [13] (setting [31]); -0.371% in [14] (setting [32]); 3.23% in experiment [15] (setting [33]); -1.28% in experiment [16] (setting [34]); 10% in experiment [17] (setting [35]); -3% in [18] (setting [36]). For the same molecule, the inhibition at 1 µM in experiment [19] (setting [37]) came out at 6%.

As to `CCN1CCN(c2ccc(Nc3cc(N(C)C(=O)Nc4c(Cl)c(OC)cc(OC)c4Cl)ncn3)cc2)CC1` [infigratinib], the inhibition at 1 µM is 91% in experiment [1] (setting [21]); 40% in [2] (setting [22]); 0.848% in [3]; 34% in experiment [4] (setting [23]); -2.17% in experiment [5] (setting [24]); 5.33% in [6] (setting [25]). For the same molecule, the inhibition at 1 µM was -3% in experiment [7] (setting [26]); 92% in experiment [8] (setting [27]); -32% in [10] (setting [29]); -9% in experiment [11]; -0.383% in experiment [12] (setting [30]); -12% in experiment [13] (setting [31]). For the same molecule, the inhibition at 1 µM in experiment [14] (setting [32]) was 17%; in experiment [15] (setting [33]), 63%; in experiment [20] (setting [38]), 96%; in experiment [16] (setting [34]), 1.4%; in [17] (setting [35]), -0.616%; in [18] (setting [36]), -1.71%. In addition, the inhibition at 1 µM in [19] (setting [37]) was 5.43%.

`CNC(=O)c1ccc(-c2cnc3ncc(Cc4ccc5ncccc5c4)n3n2)cc1F` [capmatinib]: the inhibition at 1 µM in experiment [1] was 4.23%; in experiment [2], -2%; in experiment [4], 4%; in experiment [5], -0.77%; in experiment [6], 5.68%; in experiment [7] it was 0.148%. For the same molecule, the inhibition at 1 µM is 4% in [8]; -2% in [9]; -28% in [10]; -0.278% in experiment [12]; -10% in [13]; -1.65% in experiment [14]. Also, the inhibition at 1 µM in experiment [15] is -3.44%; in [20] it was -2.22e-14%; in experiment [16], -0.897%; in experiment [17] it was 5%; in experiment [18], -4%; in experiment [19], 12%.

Consider `C=CC(=O)N1CCC([C@@H]2CCNc3c(C(N)=O)c(-c4ccc(Oc5ccccc5)cc4)nn32)CC1` [zanubrutinib], for which the inhibition at 1 µM was 67% in experiment [1] (setting [21]); -2.35% in experiment [3]; 2.69% in experiment [4] (setting [23]); -4% in experiment [5] (setting [24]); -3.21% in experiment [6] (setting [25]); -2.32% in experiment [7] (setting [26]). Besides, the inhibition at 1 µM in experiment [8] (setting [27]) is 11%; in [9] (setting [28]) it was 82%; in [10] (setting [29]), -9%; in [11] it was -9%; in [12] (setting [30]), -1.15%; in experiment [13] (setting [31]), -7%. In addition, the inhibition at 1 µM in experiment [14] (setting [32]) was 3.49%; in experiment [15] (setting [33]), 2%; in experiment [20] (setting [38]) it was 3%; in experiment [16] (setting [34]), -1.86%; in [17] (setting [35]) it was -7%; in experiment [18] (setting [36]), -4%. In addition, the inhibition at 1 µM in experiment [19] (setting [37]) is -0.467%.

`C[C@H]1Oc2cc(cnc2N)-c2c(nn(C)c2C#N)CN(C)C(=O)c2ccc(F)cc21` [lorlatinib]: the inhibition at 1 µM was 24% in [1] (setting [21]); 15% in experiment [2] (setting [22]); 4.66% in experiment [3]; 78% in experiment [4] (setting [23]); -2.41% in experiment [5] (setting [24]); 8% in experiment [6] (setting [25]). Also, the inhibition at 1 µM is 5% in [7] (setting [26]); 7% in experiment [8] (setting [27]); -14% in experiment [10] (setting [29]); -4.7% in experiment [11]; -2.48% in [12] (setting [30]); 2.14% in experiment [13] (setting [31]). Further, the inhibition at 1 µM came to 2.65% in [14] (setting [32]); 17% in experiment [15] (setting [33]); 3.5% in experiment [16] (setting [34]); 2.53% in experiment [17] (setting [35]); 1.39% in experiment [18] (setting [36]); 11% in [19] (setting [37]).

Take `FC(F)(F)c1ccc(CNc2ccc(Cc3c[nH]c4ncc(Cl)cc34)cn2)cn1` [pexidartinib]: the inhibition at 1 µM is 51% in [1] (setting [21]); -9% in [2] (setting [22]); 14% in experiment [4] (setting [23]); 0.601% in [5] (setting [24]); 31% in [6] (setting [25]); 19% in experiment [7] (setting [26]). In addition, the inhibition at 1 µM in experiment [8] (setting [27]) is 81%; in experiment [9] (setting [28]), 5.44%; in experiment [10] (setting [29]), -32%; in experiment [11], 4.44%; in [12] (setting [30]), 7%; in [13] (setting [31]) it was -0.864%. The inhibition at 1 µM was -6.52% in experiment [14] (setting [32]); 14% in experiment [15] (setting [33]); 84% in experiment [20] (setting [38]); 13% in [16] (setting [34]); 42% in experiment [17] (setting [35]); -1.68% in experiment [18] (setting [36]). Besides, the inhibition at 1 µM in experiment [19] (setting [37]) was 7%.

The values are drawn from article PMC9516332 (Frontiers in Oncology, 2022).
